Results as given in paper PMC6934184, “Selective DNA-PKcs inhibition extends the therapeutic index of localized radiotherapy and chemotherapy” (The Journal of Clinical Investigation, 2019).

Biological target: T1, JAK2 JH1 JH2 V617F (Homo sapiens, UniProt O60674, V617F)
T1 construct: JAK2 JH1 JH2 V617F; purchased Thermo Fisher Scientific (Life Technologies) SelectScreen
Experiment: SelectScreen Z'LYTE
Type: biochemical
In short: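 SelectScreen broad panel; activity (Z'LYTE, Adapta) plus binding formats. ATP: Km app for CSF1R Z'LYTE; 10 for CAMK1 Adapta. Readout = % per kinase.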

T1 sequence (O60674 532-1132 V617F limits assumed): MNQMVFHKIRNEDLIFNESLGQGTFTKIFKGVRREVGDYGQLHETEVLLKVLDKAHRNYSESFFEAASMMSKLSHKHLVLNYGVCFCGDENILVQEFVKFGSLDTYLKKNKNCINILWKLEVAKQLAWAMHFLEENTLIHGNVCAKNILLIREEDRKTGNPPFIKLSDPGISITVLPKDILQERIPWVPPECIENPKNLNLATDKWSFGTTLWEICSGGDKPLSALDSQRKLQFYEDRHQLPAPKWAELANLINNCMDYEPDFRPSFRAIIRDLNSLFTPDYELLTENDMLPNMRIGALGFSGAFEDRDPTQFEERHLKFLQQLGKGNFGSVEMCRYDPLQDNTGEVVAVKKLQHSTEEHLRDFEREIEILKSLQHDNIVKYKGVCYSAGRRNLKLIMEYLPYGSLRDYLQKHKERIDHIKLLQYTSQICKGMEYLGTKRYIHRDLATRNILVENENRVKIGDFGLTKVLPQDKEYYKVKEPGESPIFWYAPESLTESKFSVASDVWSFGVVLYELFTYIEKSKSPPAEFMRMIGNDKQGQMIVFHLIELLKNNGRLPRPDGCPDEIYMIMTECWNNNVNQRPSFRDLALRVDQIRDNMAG

CN(C(=O)CN1CCOCC1)c1ccc2sc3c(-c4cccc5c(=O)cc(N6CC7CCC(C6)O7)oc45)cccc3c2c1 [NU5455]
inhibition at 1 µM: -13.8%
